{"source": "patent US20060281813A1", "about": "“Methods of treating hyperproliferative cell disorders” (priority 2003, published 2006)", "key": {"[1]": {"test_system": "lung cancer", "assay": "Example 6: patients with lung cancer", "format": "in vivo, human", "conditions": "oral 100 mg/square meter with oral IRESSA"}, "[2]": {"test_system": "acute lymphoblastic leukemia", "assay": "Example 1: patient with relapsed acute lymphoblastic leukemia", "format": "in vivo, human", "description": "A person was diagnosed with acute lymphoblastic leukemia. […] 15 received a chemotherapy induction regimen of eight cycles of Hyper-CVAD which consists of the following: Cyclophosphamide 300 mg/mn^2 intravenously (IV) over 3 hours every 12 hours for six doses on days 1 through 3, with mesna at the same total dose as cyclophosphamide but given bycontinuous infusion starting with cyclophosphamide and ending 6 hours after the last dose; vincristine 2 mg IV days 4 and 11; doxorubicin 50 mg/^2 IV day 4; and dexamethasone 40 mg daily on days 1 through 4 and 11 through 14.\nIn addition, high dose methotrexate-cytarabine (ara-c) was used as follows: MTX (methotrexate) 200 mg/m^2 IV over 2 hours followed by 800 mg/m^2 IV over 24 hours on day 1; citrovorum factor rescue starting 24 hours after completion of MTX infusion at 15 mg every 6 hours x 8, and increased to 50 mg every 6 hours if MTX levels were more 25 than 20 ,upmol/L at the end of the infuision, more than 1 μμmol/L 24 hours later, or more than 0.1 μμmol/L48 hours after the end of MTX infusion, until levels were lower than 0.1μμM; ara-C (cytarabine) […] over 2 hours every 12 hours ×4 on days 2 and 3; and methylprednisolone 50 mg IV twice daily on days 1 through 3.\nAbout a year later, they relapsed with the presence of cancer cells in blood and bone marrow. Thereafter, they underwent a salvage chemotherapy regimen of FLAG (fludarabine, ara-c and G-CSF) with the following doses: fludarabine 30 mg/m^2lday for 5 days; ara-C (cytarabine) 2 g/m^2/day for 5 days (FLAG); and G-CSF (neupogen or granulocyte colony stimulating factor) 400 micrograms/m^2/day. […] They were then given the same salvage regimen plus a daily oral dose of 4-oxo-retinol at 150 mg per day for 28 days. […] This remission lasted for one month before relapse.\nThe same salvage regimen was repeated with oral administration of4-oxo-retinol (75 mg per day for 18 days) in addition to a daily dose of calcitriol (50 mcg per day concomitant with the administration of 4-oxo-retinol)."}, "[3]": {"test_system": "advanced head and neck cancer", "assay": "Example 5: patients with advanced head and neck cancer", "format": "in vivo, human", "conditions": "oral 100 mg/square meter with oral IRESSA or intravenous C-225", "excerpt": "Current systemic chemotherapy regimens are unable to prolong survival of patients with advanced head and neck cancer."}, "[4]": {"test_system": "lung cancer", "assay": "Example 7: lung cancer patients with disease progression on IRESSA alone", "format": "in vivo, human", "conditions": "added to IRESSA, oral 100 mg/square meter, optionally calcitriol 0.1-1 mcg per day"}, "[5]": {"test_system": "Xenopus laevis", "conditions": "Xenopus laevis system; cited from earlier work"}, "[6]": {"test_system": "retinoid receptor subtype", "conditions": "competition with all-trans RA; cited from earlier work"}, "[7]": {"conditions": "FLAG salvage regimen plus oral 150 mg per day for 28 days"}}, "data": [{"smiles": "CC(C=CC1=C(C)C(=O)CCC1(C)C)=CC=CC(C)=CCO", "note": "[4-oxo-retinol]", "values": [{"measurement": "tumor burden versus IRESSA alone", "setting": "[1]", "value": "reduced tumor burden"}, {"measurement": "response", "setting": "[2]; FLAG salvage regimen plus oral 75 mg per day for 18 days and calcitriol 50 mcg per day", "value": "complete remission"}, {"measurement": "duration of remission before relapse", "setting": "[2]; [7]", "value": "one"}, {"measurement": "lymph nodes", "setting": "[2]; [7]", "value": "shrinkage of the lumph nodes to normal size"}, {"measurement": "response (blood and bone marrow)", "setting": "[2]; [7]", "value": "complete remission"}, {"measurement": "survival rate versus IRESSA or C-225 alone", "setting": "[3]", "value": "better survival rate"}, {"measurement": "tumor burden", "setting": "[4]", "value": "reduced tumor burden"}, {"measurement": "ED50, teratogenicity", "setting": "[5]", "value": "300 to 400", "unit": "nM"}, {"measurement": "displacement of all-trans RA", "setting": "[6]", "value": "Neither compound efficiently displaced all-trans RA"}]}]}
